From US12036319B2, “Polyvalent sting activating compositions and uses thereof” (The Board of Regents of the University of Texas System, priority 2020, dated 2024)

Tests used:
[1] = system: B16-F10 melanoma tumor model; experiment: Interferon-stimulated gene expression in B16-F10 tumor-bearing mice; type: in vivo, mouse
Experimental: RT-qPCR. […] Results were corrected by β-actin or GAPDH.
Mice were subcutaneously inoculated with B16F10 melanoma cells (1.0×10^5) or TC-1 cells (1.0×10^5) into the right flank. […] Mice were euthanized one-day post-injection, and tumors and draining lymph nodes were collected. Total RNAs were extracted by TRIzol (Invitrogen), and the expressions of interferon-stimulated genes (ifn-β, cxcl10, tnf-α, and irf7) were measured via RT-qPCR.

STING = experiment: Time course of STING puncta, signaling and degradation in GFP-STING MEF and THP1 cells; type: cell-based
Description: (§1) Microscopy. […] In STING degradation assay, LysoTracker Red DND-99 (Thermo Scientific) was used to stain lysosomes in live cells. […] Samples were mounted in prolong gold antifade with Dapi stain (Thermo Scientific) and imaged using a Zeiss 700 confocal laser scanning microscope with a 63× oil objective. ImageJ was used to quantify co-localization by Pearson's correlation coefficient. Data are representative of at least twenty cells.
Western blot analysis. […] Briefly, cells were lysed in SDS sample buffer (with protease and phosphatase inhibitor cocktail) and heated for denaturation. […] Electro transfer was performed using 100 V for 60 min on ice. After transfer, the membrane was blocked either in 5% non-fat milk or BSA (phosphorylated protein) for 1 h at room temperature, and incubated with primary antibody overnight at 4° C. HRP-linked secondary antibody (Bio-Rad) was used for 1 h at room temperature before detection on X-ray film (GE Healthcare). Membrane was stripped in stripping buffer for 30 min and reused for […] (Sigma Aldrich) detection.
(§2) RT-qPCR. Total RNAs were extracted from cells or human tissues by using RNeasy mini kit (QIAGEN). RNA quantity and quality were confirmed using NanoDrop (DeNovix DS-11). Genomic DNA was removed and cDNA was synthesized using an iScript™ gDNA clear cDNA synthesis kit (Bio-Rad). Bio-Rad SoAdvanced™ universal SYBR green supermix and CFX connect real-time system were used for PCR analysis. Results were corrected by β-actin or GAPDH. DNA primers are listed as follows: • Mouse ifn-β: […]

[2] = system: STING R232H variant in THP1 cells; experiment: IFN-β-Luc expression in THP1 cells harboring STING R232H; type: cell-based, human
Description: (§3) WT or R232H THP-1 reporter cells were purchased from Invitrogen.

[3] = system: resected human tissues (squamous cell carcinoma from the base of tongue, cervical tumor tissues, sentinel lymph node); experiment: STING activation in freshly resected human tissues; conditions: ex vivo injection, 24 h at 37° C.; cGAMP 80 ng, PC7A 50 μg
Description: as §2

TC-1 tumors = experiment: Tumor therapy, TC-1 tumor model; type: in vivo, mouse; conditions: TC-1, intratumoral, four injections, versus 5% glucose
Experimental: Tumor therapy experiments. Mice were subcutaneously inoculated with MC38 cells (1.0×10^6) or TC-1 cells (1.0×10^5) into the right flank. Tumor size was measured every other day via a digital caliper, and tumor volume was calculated as 0.5×length×width^2. […] Mice were injected 3× in MC38 model and 4× in TC-1 model with treatments spaced 4 d apart. Mice were euthanized at a tumor burden endpoint of 2,000 mm^3.

[4] = system: mutant STING-GFP in HEK293T cells; experiment: Downstream STING activation in HEK293T cells transfected with mutant STING plasmids; type: cell-based, human
Description: as §3, §1, §2

SMILES: Nc1nc2c(ncn2[C@@H]2O[C@@H]3COP(=O)(O)OC4C(O)[C@H](n5cnc6c(N)ncnc65)O[C@@H]4COP(=O)(O)OC2C3O)c(=O)[nH]1 (stereo partly drawn) [cGAMP, cyclic guanosine monophosphate-adenosine monophosphate]
- STING activation in draining lymph nodes ([1]; intratumoral injection, cGAMP high dose 2.5 μg): minimal STING activation
- interferon-stimulated gene expression (ifn-β, cxcl10, tnf-α, irf7) in tumor ([1]; single intratumoral injection, 24 hours, PC7A 50 μg, cGAMP low dose 0.5 μg): failed to induce interferon-stimulated gene expressions
- time of peak immune response after stimulation (STING): around 6 h
- time to STING degradation (STING; STING-GFP MEFs): ≤ 12 h
- p-TBK1/p-IRF3 production and proinflammatory cytokine expression (STING; in the presence of brefeldin A (BFA, 10 μM)): fail to trigger p-TBK1/p-IRF3 production and proinflammatory cytokine expression
- IFN-β-Luc expression [2]: abrogated
- ifn-β and cxcl10 mRNA expression over control [3]: marginal effect
- extension of median survival (TC-1 tumors): 4 days
- condensate structures, TBK1 phosphorylation and ifn-β/cxcl10 expression [4]: did not impact cGAMP-mediated STING activation
